Assay results published in patent US11566007B2, “Ras inhibitors” (Revolution Medicines, Inc., priority 2019, dated 2023).
Like-named read-outs stand apart in the source and are kept apart here.

What was measured:
[1] = ester bond, 18-membered ring, DCM
SW1573 = settings: Canon et al. 2019; cited from earlier work
[2] = system: NCI-H358 KRASG12C xenograft; experiment: In vivo NSCLC K-Ras G12C xenograft model; design: species or system BALB/c nude mice
Method: Cobimetinib was administered by daily oral gavage at 2.5 mg/kg. The combination of Compound B and cobimetinib at their respective single-agent dose and regimen was also tested.

NCI-H358 cells [3] = experiment: Long-term cell proliferation assay (Incucyte confluence); assay type: cell-based, human; settings: trametinib 10 nM
Method: The plate was placed in the Incucyte S3 live cell analysis system (37° C., 5% CO2) and confluence was measured by recording images at 6-hour intervals for a maximum of 40 days, or until wells reached maximal confluence. Media and drug were replaced at 3-4 day intervals. Data are plotted as % confluence over the time course of the experiment for each single agent and respective combination (FIG. 5).

NCI-H358 cells [4] = experiment: 72-hour proliferation assay using CellTiter-Glo reagent; assay type: cell-based, human; settings: read-out: EC50 from a 72-hour proliferation assay
[5] = single agent: Compound B 50 mg/kg twice weekly intravenous, cobimetinib […] daily oral

## CC1(C)COC(=O)[C@@H]2CCCN(N2)C(=O)[C@@H](NC(=O)OC(C)(C)C)Cc2cccc(c2)-c2ccc3[nH]c(I)c(c3c2)C1
From CC(C)(CO)Cc1c(I)[nH]c2ccc(-c3cccc(C[C@H](NC(=O)OC(C)(C)C)C(=O)N4CCC[C@@H](C(=O)O)N4)c3)cc12, ester bond, EDCI/HOBt/DIPEA, DCM, 12.77 mM, 0.0 °C, 16.0 h
  ring closure, yield of all isomers: 79.8%
[1]; from CC(C)(CO)Cc1c(I)[nH]c2ccc(-c3cccc(C[C@H](NC(=O)OC(C)(C)C)C(=O)N4CCC[C@@H](C(=O)O)N4)c3)cc12, EDCI/HOBt/DIPEA, 12.8 mM, 0.0 °C
  ring closure, isolated yield: 79.8%

## CCn1c(-c2cccnc2[C@H](C)OC)c2c3cc(ccc31)-c1nc(co1)C[C@H](NC(=O)OC(C)(C)C)C(=O)N1CCC[C@H](N1)C(=O)OCC(C)(C)C2
From CCn1c(-c2cccnc2[C@H](C)OC)c(CC(C)(C)COC(=O)[C@@H]2CCCN(C(=O)[C@H](Cc3coc(Br)n3)NC(=O)OC(C)(C)C)N2)c2cc(B3OC(C)(C)C(C)(C)O3)ccc21, cc_pd bond, XPhos Pd G3/XPhos/K3PO4, dioxane, […], 70.0 °C, 4.0 h
  ring closure, yield of all isomers: 56%

## CCn1c(-c2cccnc2[C@H](C)OC)c2c3cc(ccc31)-c1nc(nn1C)C[C@H](NC(=O)OC(C)(C)C)C(=O)N1CCC[C@H](N1)C(=O)OCC(C)(C)C2
From CCn1c(-c2cccnc2[C@H](C)OC)c(CC(C)(C)COC(=O)[C@@H]2CCCN(C(=O)[C@H](Cc3nc(Br)n(C)n3)NC(=O)OC(C)(C)C)N2)c2cc(B3OC(C)(C)C(C)(C)O3)ccc21, cc_pd bond, XPhos Pd G3/XPhos/K3PO4, 1,4-dioxane, 71.7 mM, 75.0 °C, 3.0 h
  ring closure, yield of all isomers: 56.8%

## CCn1c(-c2cccnc2[C@H](C)OC)c2c3nc(ccc31)-c1csc(n1)C[C@H](NC(=O)OC(C)(C)C)C(=O)N1CCC[C@H](N1)C(=O)OCC(C)(C)C2
From CCn1c(-c2cccnc2[C@H](C)OC)c(CC(C)(C)CO)c2nc(-c3csc(C[C@H](NC(=O)OC(C)(C)C)C(=O)N4CCC[C@@H](C(=O)O)N4)n3)ccc21, ester bond, EDCI/HOBt/DIPEA, DCM, 6.4 mM, 25.0 °C, 16.0 h
  ring closure, yield of all isomers: 43%
[1]; from CCn1c(-c2cccnc2[C@H](C)OC)c(CC(C)(C)CO)c2nc(-c3csc(C[C@H](NC(=O)OC(C)(C)C)C(=O)N4CCC[C@@H](C(=O)O)N4)n3)ccc21, EDCI.HCl/HOBt/DIPEA, 6.4 mM
  ring closure, isolated yield: 43%

## CO[C@@H](C)c1ncccc1-c1c2c3cc(ccc3n1CC(F)(F)F)-c1cccc(n1)C[C@H](NC(=O)OC(C)(C)C)C(=O)N1CCCC(N1)C(=O)OCC(C)(C)C2 (some centres unmarked)
From CO[C@@H](C)c1ncccc1-c1c(CC(C)(C)CO)c2cc(-c3cccc(C[C@H](NC(=O)OC(C)(C)C)C(=O)N4CCCC(C(=O)O)N4)n3)ccc2n1CC(F)(F)F, ester bond, EDCI/HOBt/DIPEA, DCM, 6.27 mM, 25.0 °C, 3.0 h
  ring closure, yield of all isomers: 89%
[1]; from CO[C@@H](C)c1ncccc1-c1c(CC(C)(C)CO)c2cc(-c3cccc(C[C@H](NC(=O)OC(C)(C)C)C(=O)N4CCCC(C(=O)O)N4)n3)ccc2n1CC(F)(F)F, EDCI/HOBt/DIPEA, 6.27 mM
  ring closure, isolated yield: 89%

## CO[C@@H](C)c1ncccc1-c1c2c3cc(ccc3n1CC(F)(F)F)-c1nc(ns1)C[C@H](NC(=O)OC(C)(C)C)C(=O)N1CCC[C@H](N1)C(=O)OCC(C)(C)C2
From CO[C@@H](C)c1ncccc1-c1c(CC(C)(C)CO)c2cc(-c3nc(C[C@H](NC(=O)OC(C)(C)C)C(=O)N4CCC[C@@H](C(=O)O)N4)ns3)ccc2n1CC(F)(F)F, ester bond, EDCI/HOBt/DIPEA, DCM, 11.1 mM, 25.0 °C, 16.0 h
  ring closure, yield of all isomers: 43.5%
[1]; from CO[C@@H](C)c1ncccc1-c1c(CC(C)(C)CO)c2cc(-c3nc(C[C@H](NC(=O)OC(C)(C)C)C(=O)N4CCC[C@@H](C(=O)O)N4)ns3)ccc2n1CC(F)(F)F, EDCI/HOBt/DIPEA, 11.1 mM
  ring closure, isolated yield: 43.5%

## C=CC(=O)N1CCN(c2nc(=O)n(-c3c(C)ccnc3C(C)C)c3nc(-c4c(O)cccc4F)c(F)cc23)[C@@H](C)C1 [AMG510]
SW1573
  sensitivity of cell line: insensitive

## Cc1nc(N2CCC3(CC2)CO[C@@H](C)[C@H]3N)c(CO)nc1-c1cccc(Cl)c1Cl [RMC-4550]
[2]; single agent: Compound C 60 mg/kg once weekly intravenous, SHP2 inhibitor (RMC-4550) 30 mg/kg daily oral
  mice with tumor regression at end of study (out of 10), single agent: 5

## O=C(c1ccc(F)c(F)c1Nc1ccc(I)cc1F)N1CC(O)([C@@H]2CCCCN2)C1 [cobimetinib]
[2]; [5]
  effect on tumor growth, single agent: tumor growth inhibition
  tumor regressions recorded, single agent group: no tumor regressions

## CC(=O)Nc1cccc(-n2c(=O)n(C3CC3)c(=O)c3c(Nc4ccc(I)cc4F)n(C)c(=O)c(C)c32)c1 [trametinib]
NCI-H358 cells [3]; single agent at EC50 concentration: Compound D 17 nM
  time to maximal confluence after the addition of drug: ~10 days
NCI-H358 cells [3]; submaximal (EC50) concentration: Compound D 17 nM
  cell growth (% confluence) over time, single agent: a short period of growth inhibition, followed by proliferation
NCI-H358 cells [4]
  EC50: 10 nM
